The results in this text go back to paper PMC11341970 (RSC Advances, 2024).

Read-outs that look alike come from different tables or passages of the source.

For orientation: IC50 means the concentration needed to halve the response being measured.

The target in one assay is hBACE 1 (Homo sapiens, UniProt P56817). The experiment in a line: BACE 1 inhibition assay. It is filed as biochemical.
Another assay addresses EeAChE (Electrophorus electricus, UniProt O42275). The experiment in a line: AChE inhibition assay. It is filed as biochemical. Particulars: for AChE inhibition (% of inhibition): concentration not given.
Setting [1] is: read-out: hBACE 1 IC50 (μM) ± SD, FRET assay, mean ± SD of three experiments.
Where [2] appears, read: read-out: eeAChE IC50 (μM) ± SD, Ellman assay, mean ± SD of three experiments.

Sequence of EeAChE (O42275 24-633): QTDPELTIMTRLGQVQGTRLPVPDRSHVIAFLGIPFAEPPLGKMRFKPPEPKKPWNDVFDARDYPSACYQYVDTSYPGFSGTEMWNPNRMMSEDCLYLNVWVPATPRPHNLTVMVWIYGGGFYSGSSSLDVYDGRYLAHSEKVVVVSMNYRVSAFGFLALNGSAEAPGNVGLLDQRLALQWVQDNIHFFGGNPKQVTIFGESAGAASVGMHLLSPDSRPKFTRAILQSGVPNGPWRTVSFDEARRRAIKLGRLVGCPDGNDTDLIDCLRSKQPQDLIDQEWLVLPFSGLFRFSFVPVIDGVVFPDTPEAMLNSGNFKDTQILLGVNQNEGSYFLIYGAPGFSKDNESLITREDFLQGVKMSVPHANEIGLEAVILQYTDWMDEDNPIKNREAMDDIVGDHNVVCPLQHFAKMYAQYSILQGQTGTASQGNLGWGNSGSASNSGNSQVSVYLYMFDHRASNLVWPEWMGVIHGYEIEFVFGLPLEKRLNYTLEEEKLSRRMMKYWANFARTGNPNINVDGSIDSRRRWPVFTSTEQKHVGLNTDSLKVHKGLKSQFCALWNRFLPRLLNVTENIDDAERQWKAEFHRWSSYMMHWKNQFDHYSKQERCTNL
Sequence of hBACE 1 (P56817 46-501): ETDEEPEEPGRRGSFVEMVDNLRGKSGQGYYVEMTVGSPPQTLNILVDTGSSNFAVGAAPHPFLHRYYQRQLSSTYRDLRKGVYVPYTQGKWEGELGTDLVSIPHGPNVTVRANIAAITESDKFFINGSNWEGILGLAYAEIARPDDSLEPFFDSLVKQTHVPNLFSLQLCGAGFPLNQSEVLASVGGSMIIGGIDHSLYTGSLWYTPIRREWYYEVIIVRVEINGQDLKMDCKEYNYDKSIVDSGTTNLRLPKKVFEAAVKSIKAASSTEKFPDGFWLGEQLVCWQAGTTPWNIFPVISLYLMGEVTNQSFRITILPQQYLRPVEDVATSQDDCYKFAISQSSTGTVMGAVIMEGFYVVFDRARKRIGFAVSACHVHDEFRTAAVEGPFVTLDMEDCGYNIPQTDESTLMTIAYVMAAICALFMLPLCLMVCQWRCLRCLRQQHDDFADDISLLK

For the compound `[H]/N=C(/N)NN=C(/C=C/c1ccccc1)c1cccn1Cc1ccccc1` [Compound 1a, (Z)-2-((E)-1-(1-Benzyl-1H-pyrrol-2-yl)-3-phenylallylidene)hydrazine-1-carboximidamide], the IC50 came to 169.9 ± 1.27 µM on hBACE 1 and 215.3 ± 0.14 µM against EeAChE.

For `[H]/N=C(/N)NN=C(/C=C/c1ccccc1Cl)c1cccn1Cc1ccccc1` [Compound 1b, (Z)-2-((E)-1-(1-Benzyl-1H-pyrrol-2-yl)-3-(2-chlorophenyl)allylidene)hydrazine-1-carboximidamide], the IC50 is 183.8 ± 0.92 µM against hBACE 1 and 174 ± 0.92 µM on EeAChE.

`[H]/N=C(/N)NN=C(/C=C/c1ccc([N+](=O)[O-])cc1)c1cccn1Cc1ccccc1` [Compound 1c, (Z)-2-((E)-1-(1-Benzyl-1H-pyrrol-2-yl)-3-(4-nitrophenyl)allylidene)hydrazine-1-carboximidamide] gave a half-inhibitory concentration (IC50) at hBACE 1 of 194.3 ± 0.99 µM. Besides, on EeAChE, the IC50 came to 43.25 ± 0.41 µM and the “AChE inhibition (% of inhibition)” value was found to be 38.07%.

In the case of `[H]/N=C(/N)NN=C(/C=C/c1ccc(Cl)cc1Cl)c1cccn1Cc1ccccc1` [Compound 1d, (Z)-2-((E)-1-(1-Benzyl-1H-pyrrol-2-yl)-3-(2,4-dichlorophenyl)allylidene)hydrazine-1-carboximidamide], the IC50 at hBACE 1 was found to be 207.9 ± 1.91 µM. Moreover, on EeAChE, 55.4 ± 0.91 µM corresponded to half-maximal inhibition (IC50) and the “AChE inhibition (% of inhibition)” value amounted to 26.75%.

As for `[H]/N=C(/N)NN=C(/C=C/c1ccccc1F)c1cccn1Cc1ccccc1` [Compound 1e, (Z)-2-((E)-1-(1-Benzyl-1H-pyrrol-2-yl)-3-(2-fluorophenyl)allylidene)hydrazine-1-carboximidamide], the IC50 at hBACE 1 is 174.5 ± 1.48 µM; on EeAChE, 172.3 ± 1.56 µM.

As for `[H]/N=C(/N)NN=C(/C=C/c1ccc(OC)cc1)c1cccn1Cc1ccccc1` [Compound 1f, (Z)-2-((E)-1-(1-Benzyl-1H-pyrrol-2-yl)-3-(4-methoxyphenyl)allylidene)hydrazine-1-carboximidamide], the results for the IC50 at hBACE 1 and at EeAChE were 173 ± 1.06 µM and 139.1 ± 0.35 µM, respectively.

Consider `[H]/N=C(/N)NN=C(/C=C/c1ccc(OC)c(OC)c1)c1cccn1Cc1ccccc1` [Compound 1g, (Z)-2-((E)-1-(1-Benzyl-1H-pyrrol-2-yl)-3-(3,4-dimethoxyphenyl)allylidene)hydrazine-1-carboximidamide], for which the IC50 turned out to be 114 ± 1.7 µM against hBACE 1 and 146 ± 2.4 µM at EeAChE.

On to `[H]/N=C(/N)NN=C(/C=C/c1ccc(C(C)C)cc1)c1cccn1Cc1ccccc1` [Compound 1h, (Z)-2-((E)-1-(1-Benzyl-1H-pyrrol-2-yl)-3-(4-isopropylphenyl)allylidene)hydrazine-1-carboximidamide], for which the IC50 was determined as 108 ± 1.2 µM on hBACE 1 and 203.8 ± 1.7 µM against EeAChE.

On to `[H]/N=C(/N)NN=C(/C=C/c1cccc(OC)c1)c1cccn1Cc1ccccc1` [Compound 1i, (Z)-2-((E)-1-(1-Benzyl-1H-pyrrol-2-yl)-3-(3-methoxyphenyl)allylidene)hydrazine-1-carboximidamide], for which the IC50 on hBACE 1 was 134.1 ± 0.21 µM; on EeAChE, 206.6 ± 0.49 µM.

Turning to `[H]/N=C(/N)NN=C(/C=C/c1ccccn1)c1cccn1Cc1ccccc1` [Compound 1j, (Z)-2-((E)-1-(1-Benzyl-1H-pyrrol-2-yl)-3-(pyridin-2-yl)allylidene)hydrazine-1-carboximidamide], the IC50 was found to be 13.7 ± 0.77 µM against hBACE 1 and 95.6 ± 2.4 µM at EeAChE. Also, the “BACE 1 inhibition (%)” value on hBACE 1 (concentration not given) was determined as 43.62%.

For `[H]/N=C(/N)NN=C(/C=C/c1ccccc1)c1cccn1Cc1cc(OC)cc(OC)c1` [Compound 2a, (Z)-2-((E)-1-(1-(3,5-Dimethoxybenzyl)-1H-pyrrol-2-yl)-3-phenylallylidene)hydrazine-1-carboximidamide], the figures for the IC50 against hBACE 1 and at EeAChE were 95.8 ± 3.45 µM and 231.2 ± 2.26 µM, respectively.

Take `[H]/N=C(/N)NN=C(/C=C/c1ccccc1)c1cccn1Cc1ccc(OC(F)(F)F)cc1` [Compound 2b, (Z)-2-((E)-3-Phenyl-1-(1-(4-(trifluoromethoxy)benzyl)-1H-pyrrol-2-yl)allylidene)hydrazine-1-carboximidamide]: the IC50 at hBACE 1 (setting [1]) worked out at 86.19 ± 0.38 µM; at EeAChE (setting [2]), 231.7 ± 1.27 µM.

Regarding `[H]/N=C(/N)NN=C(/C=C/c1ccccc1)c1cccn1Cc1ccc(OC(F)F)cc1` [Compound 2c, (Z)-2-((E)-1-(1-(4-(Difluoromethoxy)benzyl)-1H-pyrrol-2-yl)-3-phenylallylidene)hydrazine-1-carboximidamide], the results for the IC50 at hBACE 1 (setting [1]) and at EeAChE (setting [2]) were 15.4 ± 0.24 µM and 195.8 ± 0.99 µM, respectively.

In the case of `[H]/N=C(/N)NN=C(/C=C/c1ccccc1)c1cccn1Cc1cc(F)ccc1F` [Compound 2d, (Z)-2-((E)-1-(1-(2,5-Difluorobenzyl)-1H-pyrrol-2-yl)-3-phenylallylidene)hydrazine-1-carboximidamide], the IC50 at hBACE 1 (setting [1]) is 107 ± 3.04 µM; at EeAChE (setting [2]) it was 153 ± 1.98 µM.

Regarding `[H]/N=C(/N)NN=C(/C=C/c1ccccc1)c1cccn1Cc1cc(Cl)ccc1Cl` [Compound 2e, (Z)-2-((E)-1-(1-(2,5-Dichlorobenzyl)-1H-pyrrol-2-yl)-3-phenylallylidene)hydrazine-1-carboximidamide], the results for the IC50 against hBACE 1 and at EeAChE were 178.2 ± 0.92 µM and 75.6 ± 3.09 µM, respectively.

As to `[H]/N=C(/N)NN=C(/C=C/c1ccccc1)c1cccn1Cc1ccc(C)cc1` [Compound 2f, (Z)-2-((E)-1-(1-(4-Methylbenzyl)-1H-pyrrol-2-yl)-3-phenylallylidene)hydrazine-1-carboximidamide], the IC50 on hBACE 1 came out at 85.7 ± 2.43 µM; at EeAChE, 176.7 ± 0.64 µM.

As to `[H]/N=C(/N)NN=C(/C=C/c1ccccc1)c1cccn1Cc1ccccc1F` [Compound 2g, (Z)-2-((E)-1-(1-(2-Fluorobenzyl)-1H-pyrrol-2-yl)-3-phenylallylidene)hydrazine-1-carboximidamide], the IC50 was determined as 100.8 ± 0.57 µM against hBACE 1 and 163 ± 3.18 µM at EeAChE.

For the compound `[H]/N=C(/N)NN=C(/C=C/c1ccccc1)c1cccn1Cc1ccc(F)cc1C(F)(F)F` [Compound 2h, (Z)-2-((E)-1-(1-(4-Fluoro-2-(trifluoromethyl)benzyl)-1H-pyrrol-2-yl)-3-phenylallylidene)hydrazine-1-carboximidamide], the IC50 on hBACE 1 came out at 74.2 ± 1.8 µM; at EeAChE it was 57.1 ± 3.91 µM.

Regarding `[H]/N=C(/N)NN=C(/C=C/c1ccccc1)c1cccn1Cc1cc(C(F)(F)F)cc(C(F)(F)F)c1` [Compound 2i, (Z)-2-((E)-1-(1-(3,5-Bis(trifluoromethyl)benzyl)-1H-pyrrol-2-yl)-3-phenylallylidene)hydrazine-1-carboximidamide], the IC50 came out at 139.1 ± 1.13 µM at hBACE 1 and 77.56 ± 0.66 µM against EeAChE.

Regarding `[H]/N=C(/N)NN=C(/C=C/c1ccccc1)c1cccn1Cc1ccc(CCCC)cc1` [Compound 2j, (Z)-2-((E)-1-(1-(4-Butylbenzyl)-1H-pyrrol-2-yl)-3-phenylallylidene)hydrazine-1-carboximidamide], the IC50 against hBACE 1 is 132.7 ± 1.22 µM; on EeAChE, 55.4 ± 4.19 µM.

Take `[H]/N=C(/N)NN=C(/C=C/c1ccccc1)c1cccn1Cc1ccc(F)cc1F` [Compound 2k, (Z)-2-((E)-1-(1-(2,4-Difluorobenzyl)-1H-pyrrol-2-yl)-3-phenylallylidene)hydrazine-1-carboximidamide]: the results for the IC50 at hBACE 1 and against EeAChE were 133 ± 1.84 µM and 61.1 ± 1.48 µM, respectively.

On to `[H]/N=C(/N)NN=C(/C=C/c1ccccc1)c1cccn1Cc1ccc([N+](=O)[O-])cc1` [Compound 2l, (Z)-2-((E)-1-(1-(4-Nitrobenzyl)-1H-pyrrol-2-yl)-3-phenylallylidene)hydrazine-1-carboximidamide], for which the IC50 against hBACE 1 amounted to 193.35 ± 0.07 µM; on EeAChE, 43.6 ± 0.66 µM.

In the case of `[H]/N=C(/N)NN=C(/C=C/c1ccccc1)c1cccn1Cc1cccc(Br)c1` [Compound 2m, (Z)-2-((E)-1-(1-(3-Bromobenzyl)-1H-pyrrol-2-yl)-3-phenylallylidene)hydrazine-1-carboximidamide], the IC50 is 134 ± 3.11 µM at hBACE 1 and 51.14 ± 0.22 µM against EeAChE.

Take `[H]/N=C(/N)NN=C(/C=C/c1ccccc1)c1cccn1Cc1cccc(C#N)c1` [Compound 2o, (Z)-2-((E)-1-(1-(3-Cyanobenzyl)-1H-pyrrol-2-yl)-3-phenylallylidene)hydrazine-1-carboximidamide]: the results for the IC50 at hBACE 1 and at EeAChE were 147.8 ± 0.28 µM and 75.4 ± 1.03 µM, respectively.

In the case of `[H]/N=C(/N)NN=C(/C=C/c1ccccc1)c1cccn1Cc1cc(F)ccc1C` [Compound 2p, (Z)-2-((E)-1-(1-(5-Fluoro-2-methylbenzyl)-1H-pyrrol-2-yl)-3-phenylallylidene)hydrazine-1-carboximidamide], the IC50 against hBACE 1 was determined as 145 ± 0.28 µM; against EeAChE, 80.13 ± 0.16 µM.

In the case of `[H]/N=C(/N)NN=C(/C=C/c1ccccc1)c1cccn1Cc1ccc(C(C)(C)C)cc1` [Compound 2q, (Z)-2-((E)-1-(1-(4-(tert-Butyl)benzyl)-1H-pyrrol-2-yl)-3-phenylallylidene)hydrazine-1-carboximidamide], the IC50 against hBACE 1 was 167.5 ± 0.71 µM; against EeAChE it was 48.52 ± 0.23 µM.

In the case of `[H]/N=C(/N)NN=C(/C=C/c1ccccc1)c1cccn1Cc1ccc(C(C)C)cc1` [Compound 2r, (Z)-2-((E)-1-(1-(4-Isopropylbenzyl)-1H-pyrrol-2-yl)-3-phenylallylidene)hydrazine-1-carboximidamide], the figures for the IC50 against hBACE 1 and at EeAChE were 191.3 ± 1.41 µM and 50.4 ± 0.91 µM, respectively.

`[H]/N=C(/N)NN=C(/C=C/c1ccc(F)cc1)c1cccn1Cc1ccc(Br)cc1` [Compound 3a, (Z)-2-((E)-1-(1-(4-Bromobenzyl)-1H-pyrrol-2-yl)-3-(4-fluorophenyl)allylidene)hydrazine-1-carboximidamide]: the IC50 at hBACE 1 (setting [1]) amounted to 165.7 ± 1.34 µM; at EeAChE (setting [2]) it was 86.09 ± 0.33 µM.

As to `[H]/N=C(/N)NN=C(/C=C/c1ccc(C(F)(F)F)cc1)c1cccn1Cc1ccc(CCCC)cc1` [Compound 3b, (Z)-2-((E)-1-(1-(4-Butylbenzyl)-1H-pyrrol-2-yl)-3-(4-(trifluoromethyl)phenyl)allylidene)hydrazine-1-carboximidamide], the IC50 at hBACE 1 (setting [1]) was found to be 204.6 ± 0.42 µM; on EeAChE (setting [2]), 57.4 ± 1.12 µM.

As to `[H]/N=C(/N)NN=C(/C=C/c1ccc(OC)c(OC)c1)c1cccn1Cc1ccc(F)cc1C(F)(F)F` [Compound 3c, (Z)-2-((E)-3-(3,4-Dimethoxyphenyl)-1-(1-(4-fluoro-2-(trifluoromethyl)benzyl)-1H-pyrrol-2-yl)allylidene)hydrazine-1-carboximidamide], the IC50 at hBACE 1 (setting [1]) stood at 204 ± 2.33 µM; on EeAChE (setting [2]), 58.19 ± 0.44 µM.
